In patent US20080200454A1, “CARBON-LINKED TETRAHYDRO-PYRAZOLO-PYRIDINE MODULATORS OF CATHEPSIN S” (priority 2007, published 2008):
pIC50: −log10 of the molar value.

molecular target: Recombinant human cathepsin S (CatS) (Homo sapiens, UniProt P25774); assay: Recombinant human cathepsin S (CatS) inhibition assay, fluorogenic substrate Z-Valine-Valine-Arginine-AMC; settings: not given;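 note: Baculovirus-expressed CatS in pH 5.0 sodium acetate buffer with DTT and NaCl, fluorescence read each minute over 20 min, inhibition derived from rate slope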
Sequence (P25774 115-331): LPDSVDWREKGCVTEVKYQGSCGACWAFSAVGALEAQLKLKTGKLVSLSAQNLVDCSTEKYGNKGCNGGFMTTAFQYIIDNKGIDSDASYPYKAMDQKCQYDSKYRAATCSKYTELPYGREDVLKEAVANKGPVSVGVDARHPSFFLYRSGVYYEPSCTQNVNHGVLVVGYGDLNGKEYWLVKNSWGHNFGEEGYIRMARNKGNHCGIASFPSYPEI

With `CS(=O)(=O)N1CCc2c(c(-c3ccc(Cl)c(C#Cc4cccc(CNCc5ccccc5)c4)c3)nn2CCCN2CCOCC2)C1` [Example 379, 1-[3-({2-Chloro-5-[5-(methylsulfonyl)-1-(3-morpholin-4-ylpropyl)-4,5,6,7-tetrahydro-1H-pyrazolo[4,3-c]pyridin-3-yl]phenyl}ethynyl)phenyl]-N-(phenylmethyl)methanamine] as the compound, how does the pIC50 read?
The pIC50 was 6.54.

How did the pIC50 turn out when `CS(=O)(=O)N1CCc2c(c(-c3ccc(C(F)(F)F)c(C#CCNS(=O)(=O)c4ccccc4)c3)nn2CC(O)CN2CCOCC2)C1` (stereo not drawn) [Example 305, N-(3-{5-[1-(2-Hydroxy-3-morpholin-4-ylpropyl)-5-(methylsulfonyl)-4,5,6,7-tetrahydro-1H-pyrazolo[4,3-c]pyridin-3-yl]-2-(trifluoromethyl)phenyl}prop-2-yn-1-yl)benzenesulfonamide] was run?
Its pIC50 is 5.40.

With `CCNCc1cc(C#Cc2cc(-c3nn(CCCN4CCCCC4)c4c3CN(C(N)=O)CC4)ccc2Cl)ccc1Cl` [Example 167, 3-[4-Chloro-3-({4-chloro-3-[(ethylamino)methyl]phenyl}ethynyl)phenyl]-1-(3-piperidin-1-ylpropyl)-1,4,6,7-tetrahydro-5H-pyrazolo[4,3-c]pyridine-5-carboxamide] as the compound, how does the pIC50 read?
The pIC50 was 7.52.

How did the pIC50 turn out when `CS(=O)(=O)N1CCc2c(c(-c3ccc(Cl)c(C#Cc4ccc5c(c4)CN[C@H](C(=O)N4CCCC4)C5)c3)nn2CCCN2CCOCC2)C1` [Example 466, (3S)-7-({2-Chloro-5-[5-(methylsulfonyl)-1-(3-morpholin-4-ylpropyl)-4,5,6,7-tetrahydro-1H-pyrazolo[4,3-c]pyridin-3-yl]phenyl}ethynyl)-3-(pyrrolidin-1-ylcarbonyl)-1,2,3,4-tetrahydroisoquinoline] was run?
The pIC50 was 7.30.

same assay, conditions: CatS IC50

With `C[C@H]1COCCN1CCCn1nc(-c2ccc(Cl)c(C#Cc3ccc(Cl)c(CNCc4ccccn4)c3)c2)c2c1CCN(C(=O)C(N)=O)C2` [Example 289, 2-(3-{4-Chloro-3-[(4-chloro-3-{[(pyridin-2-ylmethyl)amino]methyl}phenyl)ethynyl]phenyl}-1-{3-[(3S)-3-methylmorpholin-4-yl]propyl}-1,4,6,7-tetrahydro-5H-pyrazolo[4,3-c]pyridin-5-yl)-2-oxoacetamide] as the compound, how does the pIC50 read?
The pIC50 was 8.00.

With `CS(=O)(=O)N1CCc2c(c(-c3ccc(Cl)c(C#Cc4ccc(CNCc5ccc(Cl)cc5)cc4)c3)nn2CCCN2CCSCC2)C1` [Example 183, 1-[4-({2-Chloro-5-[5-(methylsulfonyl)-1-(3-thiomorpholin-4-ylpropyl)-4,5,6,7-tetrahydro-1H-pyrazolo[4,3-c]pyridin-3-yl]phenyl}ethynyl)phenyl]-N-[(4-chlorophenyl)methyl]methanamine] as the compound, how does the pIC50 read?
Its pIC50 is 7.10.

With `CN(C)Cc1cc(C#Cc2cc(-c3nn(CCCN4CCCCC4)c4c3CN(S(C)(=O)=O)CC4)ccc2Cl)ccc1Cl` [Example 617, 1-[2-Chloro-5-({2-chloro-5-[5-(methylsulfonyl)-1-(3-piperidin-1-ylpropyl)-4,5,6,7-tetrahydro-1H-pyrazolo[4,3-c]pyridin-3-yl]phenyl}ethynyl)phenyl]-N,N-dimethylmethanamine] as the compound, how does the pIC50 read?
The pIC50 was 7.40.

`CC(C)(C)OC(=O)NC1CCN(CCCn2nc(-c3ccc(Cl)c(C#Cc4ccc(CNCc5ccc(Cl)cc5)cc4)c3)c3c2CCN(S(C)(=O)=O)C3)CC1` [Example 329, 1,1-Dimethylethyl (1-{3-[3-(4-chloro-3-{[4-({[(4-chlorophenyl)methyl]amino}methyl)phenyl]ethynyl}phenyl)-5-(methylsulfonyl)-4,5,6,7-tetrahydro-1H-pyrazolo[4,3-c]pyridin-1-yl]propyl}piperidin-4-yl)carbamate] was tested. Which pIC50 did it give?
The pIC50 was 7.52.

With `CS(=O)(=O)N1CCc2c(c(-c3ccc(Cl)c(C#Cc4cccc(CNCc5ccccn5)c4)c3)nn2CCCN2CCOCC2)C1` [Example 187, 1-[3-({2-Chloro-5-[5-(methylsulfonyl)-1-(3-morpholin-4-ylpropyl)-4,5,6,7-tetrahydro-1H-pyrazolo[4,3-c]pyridin-3-yl]phenyl}ethynyl)phenyl]-N-(pyridin-2-ylmethyl)methanamine] as the compound, how does the pIC50 read?
The pIC50 was 6.82.
